Values of other authors as cited in publication PMC4503980 (Scientific Reports, 2015).

Assays:
Conditions in all cases: cited from earlier work
[1] = system: PSD-95/cypin-interaction; design: method as in PMID 19732061
[2] = system: nNOS/PSD-95 interaction; design: method as in PMID 19732061
[3] = system: nNOS; design: method as in PMID 21102461
[4] = system: nNOS; design: method as in PMID 21102461; remark: listed apart in the source
[5] = system: NMDA receptor-mediated NO synthesis; design: method as in PMID 21102461
[6] = system: neurons; design: method as in PMID 21102461
[7] = system: NMDA receptor; design: method as in PMID 21102461
[8] = system: nNOS/CAPON; design: method as in PMID 21102461
[9] = system: PSD-95/SynGAP; design: method as in PMID 21102461

Structure (SMILES)	effect on PSD-95/cypin-interaction [1]	disruption of nNOS/PSD-95 interaction in vitro [2]	effect on nNOS catalytic activity [3]	effect on nNOS expression [4]	NMDA receptor-mediated NO synthesis [5]	neuroprotective properties in neurons [6]	effect on NMDA receptor function (ion flux) [7]	inhibition of nNOS/CAPON [8]	inhibition of PSD-95/SynGAP [9]
Oc1c(Cl)cc(Cl)cc1CNc1ccc2[nH]nnc2c1 [IC87201, 2-((1H-Benzo[d][1–3]triazol-5-ylamino)methyl)-4-6-dichlorophenol]	did not affect	disrupt							
O=C(O)c1ccc(NCc2cc(Cl)cc(Cl)c2O)cc1O [ZL006, 4-((3,5-Dichloro-2-hydroxybenzyl)amino)-2-hydroxybenzoic acid]			did not affect	did not affect	inhibited	robust neuroprotective properties	did not affect	not inhibited	not inhibited
